Experimental data from paper PMC5216056 (Nature Communications, 2017).
“And” between values parts separate entries of the source, which are not always exact repeats. Equal values may be shown once. Read-outs that look alike come from different tables or passages of the source.

Experiments:
[1] = 1 μM
[2] = logD distribution coefficient
hCB1R = biological target: T1, hCB1R (Homo sapiens, UniProt P21554); assay: cell-based; assay type: cell-based; details: for Emax: read-out: Emax ± SEM β-AR recruitment hCB1R
T1 construct: host or cells: CHO
T1 sequence (P21554 whole entry): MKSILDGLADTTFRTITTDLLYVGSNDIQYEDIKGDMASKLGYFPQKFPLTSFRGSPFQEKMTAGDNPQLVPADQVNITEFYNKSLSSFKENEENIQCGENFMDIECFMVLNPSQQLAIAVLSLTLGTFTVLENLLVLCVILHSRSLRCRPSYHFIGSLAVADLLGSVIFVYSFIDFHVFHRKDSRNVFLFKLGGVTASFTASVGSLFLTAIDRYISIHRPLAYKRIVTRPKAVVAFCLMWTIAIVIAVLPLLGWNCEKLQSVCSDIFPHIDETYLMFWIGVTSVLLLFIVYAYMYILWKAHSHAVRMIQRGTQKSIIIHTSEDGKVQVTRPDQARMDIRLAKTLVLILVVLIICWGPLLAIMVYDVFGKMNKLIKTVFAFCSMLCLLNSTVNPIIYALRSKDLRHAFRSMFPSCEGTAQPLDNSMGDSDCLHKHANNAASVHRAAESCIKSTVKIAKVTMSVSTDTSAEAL

hABHD12 = biological target: T2, hABHD12 (Homo sapiens, UniProt Q8N2K0); assay: ABHD12 activity; assay type: biochemical; details: for ABHD12 % inhibition: single point
T2 construct: expressed in transfected cells
T2 sequence (Q8N2K0 1-398): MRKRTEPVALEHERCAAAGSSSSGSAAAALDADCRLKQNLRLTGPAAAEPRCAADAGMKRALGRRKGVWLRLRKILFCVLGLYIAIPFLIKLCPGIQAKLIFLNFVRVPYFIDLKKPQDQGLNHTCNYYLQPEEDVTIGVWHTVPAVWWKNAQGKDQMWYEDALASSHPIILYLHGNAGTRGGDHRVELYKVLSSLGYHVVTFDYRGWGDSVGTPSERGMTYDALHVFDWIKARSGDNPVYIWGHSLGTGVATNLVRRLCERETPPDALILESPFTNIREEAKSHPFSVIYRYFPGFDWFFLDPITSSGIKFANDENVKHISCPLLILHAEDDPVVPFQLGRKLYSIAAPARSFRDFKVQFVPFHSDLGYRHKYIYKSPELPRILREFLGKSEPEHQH
Source text: HEK293T cells were obtained from American Type Culture Collection (ATCC, Manassas, VA, USA). Lipofectamine 2000 was obtained from Life Technologies (Carlsbad, CA, USA) and geneticin from InvivoGen. Cell culture medium, FBS, and cell culture supplements were from Invitrogen (Carlsbad, CA, USA). pCMV6-AC-hABHD6 and pCMV6-XL4-hABHD12 were a kind gift from Prof Jarmo T. Laitinen. hABHD12 sequence was subsequently inserted in a pcDNA3.1 plasmid in order to generate a stable cell line. The effect of CB2R ligands on ABHD6 and ABHD12 hydrolytic activity was determined using cell homogenate from hABHD6 and hABHD12 overexpressing HEK293T cells (40 μg total protein per condition). Samples were pre-incubated with the compounds (10 μM in the screening assay and concentrations in the range 1 nM—50 μM for the dose-response curves) in […] (pH=7.6) buffer containing 0.1%(w/v) BSA. DMSO was used as vehicle control and WWL70 10 μM or THL 20 μM as positive controls. [^3H]-2-OG (10 μM final concentration) was added and after incubation of 5 min at 37 °C, the reaction was stopped by the addition of 400 μl of ice-cold CHCl3:MeOH (1:1). The samples were vortex and centrifuged (16,100g 10 min 4 °C). Aliquots (200 μl) of the aqueous phase were assayed for tritium content by liquid scintillation spectroscopy. The values obtained for each measurement were corrected for non-specific hydrolysis (non-ABHD6 mediated) by subtracting the signal obtained in the hydrolysis of [^3H]- 2-OG by non-transfected HEK293T.

Rat recombinant TRPA1 = biological target: T3, Rat recombinant TRPA1 (Rattus norvegicus, UniProt Q6RI86); assay: cell-based; assay type: cell-based; details: for EC50: read-out: TRPA1 Potency EC50; for IC50: vs AITC 100μM, 5 min pre-incubation, read-out: TRPA1 IC50 for antagonism or desensitization
T3 construct: expressed in transfected cells
T3 sequence (Q6RI86 whole entry): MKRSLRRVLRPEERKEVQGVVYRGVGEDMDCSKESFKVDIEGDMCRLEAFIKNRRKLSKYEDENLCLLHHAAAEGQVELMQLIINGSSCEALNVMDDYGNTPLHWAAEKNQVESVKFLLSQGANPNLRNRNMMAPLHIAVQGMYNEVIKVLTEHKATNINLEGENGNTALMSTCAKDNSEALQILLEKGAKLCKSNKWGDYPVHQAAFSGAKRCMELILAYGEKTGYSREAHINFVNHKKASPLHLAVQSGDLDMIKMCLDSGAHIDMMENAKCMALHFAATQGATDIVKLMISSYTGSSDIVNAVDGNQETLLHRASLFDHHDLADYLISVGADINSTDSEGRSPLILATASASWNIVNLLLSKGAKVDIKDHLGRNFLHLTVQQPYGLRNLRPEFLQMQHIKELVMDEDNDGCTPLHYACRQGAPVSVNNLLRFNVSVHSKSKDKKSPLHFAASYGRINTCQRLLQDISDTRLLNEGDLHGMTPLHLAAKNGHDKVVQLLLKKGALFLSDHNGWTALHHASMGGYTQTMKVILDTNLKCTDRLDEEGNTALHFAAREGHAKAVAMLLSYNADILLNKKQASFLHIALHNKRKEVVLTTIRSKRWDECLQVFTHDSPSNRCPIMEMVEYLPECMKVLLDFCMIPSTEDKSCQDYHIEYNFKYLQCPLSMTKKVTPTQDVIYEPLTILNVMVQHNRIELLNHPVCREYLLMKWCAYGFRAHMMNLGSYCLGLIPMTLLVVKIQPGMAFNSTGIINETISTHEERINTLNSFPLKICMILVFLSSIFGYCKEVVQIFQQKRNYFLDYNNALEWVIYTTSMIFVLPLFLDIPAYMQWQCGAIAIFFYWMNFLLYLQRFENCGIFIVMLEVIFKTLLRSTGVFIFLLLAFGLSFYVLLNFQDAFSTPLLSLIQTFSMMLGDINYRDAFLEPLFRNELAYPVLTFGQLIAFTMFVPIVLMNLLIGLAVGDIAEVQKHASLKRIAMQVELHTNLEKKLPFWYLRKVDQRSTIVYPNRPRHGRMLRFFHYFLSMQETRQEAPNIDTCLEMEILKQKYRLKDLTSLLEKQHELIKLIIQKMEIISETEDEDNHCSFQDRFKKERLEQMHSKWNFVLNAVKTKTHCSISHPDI

[3] = biological target: T4, norepinephrine transporter (h) (Homo sapiens, UniProt P23975); assay: biochemical; assay type: binding; details: for inhibition at 10 µM: read-out: % inhibition norepinephrine transporter (h)
T4 construct: CEREP (contract assay)
T4 sequence (P23975 whole entry): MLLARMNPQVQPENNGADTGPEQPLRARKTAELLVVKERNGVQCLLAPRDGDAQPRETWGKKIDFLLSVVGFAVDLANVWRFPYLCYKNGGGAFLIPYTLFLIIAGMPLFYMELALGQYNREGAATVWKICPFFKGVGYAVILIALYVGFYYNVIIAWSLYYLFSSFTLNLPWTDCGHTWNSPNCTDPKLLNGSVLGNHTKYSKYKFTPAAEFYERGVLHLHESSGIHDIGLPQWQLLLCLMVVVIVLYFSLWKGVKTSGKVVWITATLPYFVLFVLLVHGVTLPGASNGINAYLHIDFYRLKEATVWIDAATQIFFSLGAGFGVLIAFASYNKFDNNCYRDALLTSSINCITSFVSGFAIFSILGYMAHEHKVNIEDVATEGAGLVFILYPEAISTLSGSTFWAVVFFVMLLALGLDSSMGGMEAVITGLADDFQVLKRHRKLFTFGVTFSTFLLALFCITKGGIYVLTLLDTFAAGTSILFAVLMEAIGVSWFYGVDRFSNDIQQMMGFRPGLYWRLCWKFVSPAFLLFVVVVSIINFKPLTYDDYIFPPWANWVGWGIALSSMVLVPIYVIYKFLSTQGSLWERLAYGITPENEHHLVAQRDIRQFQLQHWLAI

AR (h) = assay: CEREP panel; assay type: binding, human; details: 10 µM
mouse P-gp = mouse P-gp (Mus musculus, UniProt P21447); details: efflux ratio
Chain of mouse P-gp (P21447 whole entry): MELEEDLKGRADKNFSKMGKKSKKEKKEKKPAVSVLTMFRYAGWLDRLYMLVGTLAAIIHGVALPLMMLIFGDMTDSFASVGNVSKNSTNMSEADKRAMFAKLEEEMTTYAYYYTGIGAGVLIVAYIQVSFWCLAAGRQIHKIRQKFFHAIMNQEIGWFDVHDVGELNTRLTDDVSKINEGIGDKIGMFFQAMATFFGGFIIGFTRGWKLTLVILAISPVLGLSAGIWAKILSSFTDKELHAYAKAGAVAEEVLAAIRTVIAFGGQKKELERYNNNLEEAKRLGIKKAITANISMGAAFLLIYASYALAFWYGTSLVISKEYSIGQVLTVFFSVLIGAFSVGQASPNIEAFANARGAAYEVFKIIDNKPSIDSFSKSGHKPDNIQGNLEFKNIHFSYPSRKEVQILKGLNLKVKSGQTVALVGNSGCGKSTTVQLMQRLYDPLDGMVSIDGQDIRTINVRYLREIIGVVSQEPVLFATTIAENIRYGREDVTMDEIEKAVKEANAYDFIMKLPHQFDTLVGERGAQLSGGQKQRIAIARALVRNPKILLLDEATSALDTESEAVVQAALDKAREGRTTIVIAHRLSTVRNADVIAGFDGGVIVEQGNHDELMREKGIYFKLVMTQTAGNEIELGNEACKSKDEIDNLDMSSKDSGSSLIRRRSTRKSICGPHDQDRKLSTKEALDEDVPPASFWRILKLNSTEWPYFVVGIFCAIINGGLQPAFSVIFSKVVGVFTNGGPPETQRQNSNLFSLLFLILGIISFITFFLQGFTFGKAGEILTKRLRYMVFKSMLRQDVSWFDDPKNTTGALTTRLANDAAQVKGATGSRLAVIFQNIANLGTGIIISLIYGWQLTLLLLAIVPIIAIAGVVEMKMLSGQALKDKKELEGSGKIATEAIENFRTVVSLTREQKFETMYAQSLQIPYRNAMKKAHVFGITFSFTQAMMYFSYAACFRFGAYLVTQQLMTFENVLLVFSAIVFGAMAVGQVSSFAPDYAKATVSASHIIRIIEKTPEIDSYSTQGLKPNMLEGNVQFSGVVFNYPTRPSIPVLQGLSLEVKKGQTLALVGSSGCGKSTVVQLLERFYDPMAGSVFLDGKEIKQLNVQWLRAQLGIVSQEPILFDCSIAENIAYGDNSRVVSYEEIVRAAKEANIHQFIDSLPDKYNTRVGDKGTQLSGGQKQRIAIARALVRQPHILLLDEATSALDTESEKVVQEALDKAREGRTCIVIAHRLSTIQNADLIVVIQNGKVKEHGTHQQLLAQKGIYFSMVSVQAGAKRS

A3 (h) = biological target: T5, A3 (h) (Homo sapiens, UniProt P0DMS8); assay: CEREP panel; assay type: binding; details: for inhibition at 10 µM: read-out: % inhibition A3 (h)
T5 construct: CEREP
T5 sequence (P0DMS8 1-318): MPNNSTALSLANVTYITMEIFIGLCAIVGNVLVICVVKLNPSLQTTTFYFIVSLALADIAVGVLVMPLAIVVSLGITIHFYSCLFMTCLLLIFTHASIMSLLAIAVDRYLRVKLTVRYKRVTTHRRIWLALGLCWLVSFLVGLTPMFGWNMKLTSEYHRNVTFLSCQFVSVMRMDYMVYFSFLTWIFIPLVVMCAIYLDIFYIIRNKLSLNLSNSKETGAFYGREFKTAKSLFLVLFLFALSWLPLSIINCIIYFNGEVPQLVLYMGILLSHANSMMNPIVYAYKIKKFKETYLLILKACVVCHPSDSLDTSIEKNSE

PCP = assay type: binding; details: 10 µM
AT1 (h) = biological target: T6, AT1 (h) (Homo sapiens, UniProt P30556); assay: CEREP panel; assay type: binding; details: for inhibition at 10 µM: read-out: % inhibition AT1 (h)
T6 construct: CEREP
T6 sequence (P30556 1-359): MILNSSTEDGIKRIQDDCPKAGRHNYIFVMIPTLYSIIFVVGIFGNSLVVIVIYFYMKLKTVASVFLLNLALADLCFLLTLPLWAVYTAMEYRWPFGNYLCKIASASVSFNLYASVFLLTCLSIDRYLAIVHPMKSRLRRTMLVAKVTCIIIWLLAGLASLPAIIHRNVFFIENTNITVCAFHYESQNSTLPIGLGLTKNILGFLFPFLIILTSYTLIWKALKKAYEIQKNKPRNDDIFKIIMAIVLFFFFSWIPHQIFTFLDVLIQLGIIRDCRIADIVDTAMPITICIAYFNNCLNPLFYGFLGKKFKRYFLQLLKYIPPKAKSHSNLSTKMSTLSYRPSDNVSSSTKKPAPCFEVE

kappa (KOP) = biological target: T7, kappa (KOP) (Rattus norvegicus, UniProt P34975); assay: CEREP panel; assay type: binding; details: for % inhibition kappa (KOP): 10 µM
T7 construct: CEREP (contract assay)
T7 sequence (P34975 whole entry): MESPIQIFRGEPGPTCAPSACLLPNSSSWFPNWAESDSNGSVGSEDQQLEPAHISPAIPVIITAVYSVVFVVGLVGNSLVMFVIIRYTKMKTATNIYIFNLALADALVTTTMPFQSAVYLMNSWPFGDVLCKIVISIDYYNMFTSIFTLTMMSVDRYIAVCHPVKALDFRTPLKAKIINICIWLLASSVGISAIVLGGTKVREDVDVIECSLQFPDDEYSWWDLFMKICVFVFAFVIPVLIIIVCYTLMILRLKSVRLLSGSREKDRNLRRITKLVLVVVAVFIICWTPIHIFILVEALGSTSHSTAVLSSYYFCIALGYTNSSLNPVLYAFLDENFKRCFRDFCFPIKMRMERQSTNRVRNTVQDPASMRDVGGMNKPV

[4] = read-out: ABHD12 IC50 (95% CI), full dose-response

| Molecule | CL microsomes human [1] [µL/min/mg protein] | logD ([2]; distribution coefficient) | Emax ± SEM β-AR recruitment hCB1R (hCB1R) | pEC50 ± SEM β-AR recruitment hCB1R (hCB1R) | ABHD12 % inhibition (hABHD12; 10 5 µM [sic]) [%] | TRPA1 Efficacy (%AITC 100μM) (Rat recombinant TRPA1) | EC50 (Rat recombinant TRPA1) [µM] | IC50 (Rat recombinant TRPA1) [µM] | % inhibition norepinephrine transporter (h) ([3]; 10 µM) [%] | % inhibition AR (h) (AR (h)) [%] | P-gp (ER) mouse (mouse P-gp) | % inhibition A3 (h) (A3 (h); 10 µM) [%] | % inhibition PCP (PCP) [%] | % inhibition AT1 (h) (AT1 (h); 10 µM) [%] | % inhibition kappa (KOP) (kappa (KOP)) [%] | further results |
| --- | --- | --- | --- | --- | --- | --- | --- | --- | --- | --- | --- | --- | --- | --- | --- | --- |
| CN1CCCCC1Cn1cc(C(=O)c2cc([N+](=O)[O-])ccc2I)c2ccccc21 (racemic) [(rac)-AM1241] | 111 | 3.66±0.03 | 6 ± 5 | < 5 |  |  |  |  |  |  |  |  |  |  |  |  |
| CN1CCCC[C@@H]1Cn1cc(C(=O)c2cc([N+](=O)[O-])ccc2I)c2ccccc21 [(R)-AM1241] | 304 | 3.66 | 26 ± 2 | 5.59 ± 0.13 | < 25 | 19.8% | 19.5 | > 50 |  |  |  |  |  |  |  |  |
| CN1CCCC[C@H]1Cn1cc(C(=O)c2cc([N+](=O)[O-])ccc2I)c2ccccc21 [(S)-AM1241] | 152 | 3.64 | 2 ± 1 | < 5 | < 25 | 47.5% | 5.8 | 40.9 | 26 | 1 | 1.4 | 42 | 2 | 1 | 87 |  |
| Cc1c(C(=O)NN2CCCCC2)nn(-c2ccc(Cl)cc2Cl)c1-c1ccc(I)cc1 [AM251] |  |  |  |  |  | 44.4% |  |  |  |  |  | 93 |  | 36 | 94 | IC50 (hABHD12; [4]): 1600 nM |
| COc1ccc(C(=O)c2c(C)n(CCN3CCOCC3)c3cc(I)ccc23)cc1 [AM630] | 82 | 3.82 |  |  | < 25 | 118.0% and 118±2% | 1.9 | 3.7 ± 0.5 | 38 | -7 | 1.3 | 76 | 9 | 17 | 57 |  |
| CCCCCCC(C)(C)c1ccc([C@@H]2C[C@H](O)CC[C@H]2CCCO)c(O)c1 [CP55940] |  |  |  |  |  |  |  |  |  | -28 |  |  | 1 |  |  | inhibition at 10 µM ([3]; 10 µM): 89%; inhibition at 10 µM (A3 (h); 10 µM): 98%; inhibition at 10 µM (AT1 (h); 10 µM): 63%; inhibition at 10 µM (kappa (KOP)): 74%; Emax (hCB1R): 94 ± 2% |
| Cc1ccc2c(c1)Cc1c(C(=O)NN3CCCCC3)nn(-c3ccc(Cl)cc3Cl)c1-2 [Gp-1a] | 13 |  | -83 ± 7 | < 5 |  | 83.6% and 84 ± 1% | 2.1 | 10.4 | 59 | -8 | 1.1 | 95 | -1 | 20 | 99 | IC50 (hABHD12; [4]): 800 nM |
| CCCCCCC(C)(C)c1cc(OC)c([C@@H]2C=C(CO)[C@@H]3C[C@H]2C3(C)C)c(OC)c1 [HU308] |  |  |  |  |  | 43.1% | 18.5 | > 100 |  |  |  |  | -9 |  |  | inhibition at 10 µM [3]: 33%; logD [2]: 4.29; inhibition at 10 µM (A3 (h)): -1%; inhibition at 10 µM (AT1 (h)): 53%; EC50 (hCB1R): > 10 µM; Emax (hCB1R): 5 ± 1% |
| CCCCCCC(C)(C)c1cc(OC)c(C2=C[C@H]3CC[C@]2(CO)C3(C)C)c(OC)c1 [HU910] | 90 |  | -97 ± 4 | 5.31 ± 0.06 | < 25 | 33.1% | 53.1 | > 100 | 58 |  | 3.0 | 62 | -25 | 37 |  |  |
| CCCn1c(C)c(C(=O)c2cccc3ccccc23)c2ccccc21 [JWH015] | 41 |  |  |  |  |  |  |  | 39 | 0 | 1.5 | 93 | -19 | 21 | 53 |  |
| CCCC(C)(C)c1ccc2c(c1)OC(C)(C)[C@@H]1CC=C(C)C[C@@H]21 [JWH133] | 38 | > 3 | 40 ± 7 | 5.37 ± 0.05 |  | 76.8% and 77 ± 4% and 76.8±3.8% | 8.5 ± 2.3 | 20 | -9 |  | 1.7 | -26 | 2 | 7 |  |  |
| Cc1c(C(=O)NN2CCCCC2)nn(-c2ccc(Cl)cc2Cl)c1-c1ccc(Cl)cc1 [SR141716A] |  |  |  |  |  | 67.3% and 67 ± 1% | 1.9 | 12.5 |  | 4 |  |  |  |  |  | IC50 (hABHD12): 6100 nM |
| Cc1c(C(=O)c2cccc3ccccc23)c2cccc3c2n1[C@H](CN1CCOCC1)CO3 [WIN55212-2] | 194 | 3.67±0.03 |  |  | < 50 | 72.3% and 72 ± 1% | 2.3 | 6.4 ± 0.6 | 33 | 8 |  | 84 | -3 | 29 | 79 |  |
| SR144528 |  |  | -82 ± 5 |  |  | 43.8% |  |  | 29 | -12 |  | 72 | -13 | 33 |  | ABHD12 % inhibition (hABHD12): < 25% |
